From patent publication US20040038933A1, “Pharmaceutical compositions, dose and method for treating malaria” (priority 2000, published 2004)

Experiments:
[1] = test system: asexual malarial parasites; test: Recovery from coma in patients with severe/cerebral malaria, combined administration of CRDS and artesunate; assay type: in vivo; conditions: male patients in a coma, Glasgow Coma Score, CRDS 4 mg/kg i.v. infusion every 8 hours for 4 days, artesunate i.v. up to 600 mg, 13 patients per group, FIG. 2
Method: CRDS (molecular weight 80,000; sulfur content 14.5%) was used as a sulfated polysaccharide and artesunate was used as an artemisinin compound.
(§1) CRDS was used as a solution containing 100 mg of CRDS, 50 mg of mannitol, 18 mg of dibasic sodium phosphate and phosphate buffer (pH 6.5) per vial.
(§2) CRDS was intravenously administered (infusion) at 4 mg/kg every 8 hours in a total daily dose of 12 mg/kg for 4 days.
(§3) Physiological saline was used as a placebo and administered according to the same schedule as for CRDS.
(§4) Artesunate (60 mg/vial) was intravenously administered to both CRDS and placebo groups at a dose of initially 120 mg, and then 60 mg every 12 hours up to a total dose of 600 mg. If possible, tablets containing 50 mg of artesunate were orally administered.
Coma was determined by Glasgow Coma Score.
For each of the CRDS group and the placebo group, 13 patients completed this protocol. The time required for each patient to recover from coma was recorded. Fisher's exact test was used to compare the number of patients who recovered from coma within 120 hours between both groups (CRDS group and placebo group).

[2] = test system: P. falcipanini; test: Recovery from fever in patients with severe malaria, combined administration of CRDS and artesunate; assay type: in vivo; conditions: CRDS 4 mg/kg i.v. infusion every 8 hours for 4 days, artesunate i.v. 120 mg then 60 mg every 12 hours up to 600 mg, 22 patients per group, FIG. 1
Method: Sodium curdlan sulfate (hereinafter referred to as “CRDS”; molecular weight 80,000; sulfur content 14.5%) was used as a sulfated polysaccharide and artesunate (dihydroartemisinin hemisuccinate, see formula I, J. Med. Chem., 30, 2147 (1987)) was used as an artemisinin compound.
as §1, §2, §3
as §4, with “mg (according to the current standard therapy in the Bangkok Hospital for Tropical Diseases).” for “mg.”
Fifty patients were randomly divided into a CRDS group and a placebo group. The patients were males and females at the ages of 12-65 in whom P. falcipanini was found. The patients had symptoms of severe malaria (with hypoglycemia corrected) and excluded those having symptoms of cerebral malaria. […]
The time required for each patient to recover from fever after starting the treatment was recorded. […]

With `C[C@H]1[C@H](OC(=O)CCC(=O)O)O[C@@H]2O[C@@]3(C)CC[C@H]4[C@H](C)CC[C@@H]1[C@@]24OO3` [artesunate, dihydroartemisinin hemisuccinate] the “time required for all the patients to recover from coma” value [1] was 9 days and the “time required for all the patients to recover from fever” value [2] was 9 days.
